Results from US20130029970A1 (priority 2009, published 2013).
pEC50, pIC50: −log10 of the molar value. Read-outs that look alike come from different tables or passages of the source.

How the values were obtained:
[1] = molecular target: T1, human CB1 receptors (Homo sapiens, UniProt P21554); experiment: cAMP assay in HEK-293 cells, hCB1 agonist; format: cell-based; details: inhibition of forskolin-stimulated cAMP, HEK-293 cells
T1 construct: (cDNA clone) CNR01L000
From the text: (§1) Stable, HEK-293-derived cell lines that recombinantly express hCBI or hCB2 were established. In brief, the clone hCB1 (CNR IL) or hCB2 (CNR2) was transfected into human embryonic kidney cells (HEK-293) using Lipofectamine 2000 (Gibco, Cat#11668-019) according to the manufacturer's protocol. Transfected clones were isolated by single colony purification and clones were screened for receptor expression using a whole cell, ^3H—CP 55,940 radioligand binding assay. HEK-293 stable cells were maintained in Dulbecco's modified Eagles medium (DMEM) containing 10% fetal bovine serum, 2 mM L-glutamine and 0.5 mg/mL G-418.
(§2) Functional assays which monitor G-protein coupled receptor or downstream cellular responses can be used to characterize potential CB1 receptor and/or CB2 receptor agonist or antagonist activities. Direct activation (or inhibition of activation) can be monitored using a GTPγS assay (membrane-based assay) or cAMP assay (whole cell-based assay).
(§3) cAMP assays were performed in HEK-293 cells stably expressing human CB1 or CB2 receptors. For cannabinoid receptor functional assays measuring agonist effects on cellular cAMP levels, monolayers of cultured cells were harvested with enzyme-free PBS-based cell dissociation buffer (Gibco, Cat#13151-04). Cells suspensions were centrifuged and the cells were washed once with PBS, were centrifuged again, and the cells were re-suspended in HBSS (Hank's Balanced Salt Solution, Cellgro, Cat #21-022-CV) solution containing 10 mM HEPES and 0.1% fatty acid free BSA (Sigma, Cat #A0281). Cell suspensions were prepared at 1,500,000 cells per ml. Stock solutions of test substances (10 mM) in DMSO were diluted to 1 mM using 30% DMSO as diluent. Test substances of solutions (1 mM) were further diluted down to 3× of final assay concentrations in the above HBSS buffer containing 0.1% BSA in the presence of 90 uM forskolin (Sigma Cat#F6886). To perform the assay, 20 uL of cell suspension (1,500,000 cells/mL) were added to each well in 96 well plate and treated with 10 uL test substance solution diluted as described above. Cells and compounds were incubated at 37° C. for 30 minutes. Cells were lysed and cAMP concentration was measured using DiscoveRx −XS+ cAMP assay kit (DiscoveRx Corporation Ltd., Fremont, Calif., USA, Cat #90-0075-03), following the manufacturer's protocol. GraphPad Prism software was used to calculate EC50 values using sigmoidal dose response curve fitting. The maximal amount of cAMP produced by forskolin was defined as 100%. CB1 or CB2 agonists reduced forskolin-stimulated cAMP signaling. The EC50 value of an agonist compound was defined as the concentration at which 50% of the forskolin-stimulated cAMP synthesis was inhibited.

[2] = molecular target: T2, human CB1 (hCB1) (Homo sapiens, UniProt P21554); experiment: 35S GTPγS binding assay, hCB1 agonist; format: biochemical; details: GTPγS agonist, HEK-293 membranes; read-out: hCB1 EC50 (GTPyS ag)
T2 construct: (cDNA clone) CNR01L000
From the text: (§4) cDNA expression clones for human CB1 (hCB1, Genbank Accession No. AY225225) and human CB2 (hCB2, Genbank Accession No. AY242132) expressed in vector pcDNA3.1+ were purchased from UMR cDNA Resource Center, Rolla, Mo. (Clone ID CNR01L000 for hCB1; CNR0200000 for hCB2).
as §1
(§5) Membranes were isolated from transfected cells as follows. Monolayers of cultured cells were washed twice with phosphate-buffered saline (PBS). Cells were scraped into 20 mM HEPES, pH 7.4, 10 mM EDTA containing complete cocktail protease inhibitors (Roche, Catalog #11 697 498 001) and were homogenized by an electric-powered mechanical probe homogenizer (Omni GLH; probe G7-195S) for 40 seconds at 7000 rpm. Homogenates were centrifuged 10 minutes at 1000×g at 4° C. The supernatant was collected and was centrifuged for 1 hour at 40,000×g. The supernatant was then decanted and the resulting pellet was re-suspended in 20 mM HEPES, pH 7.4, 5 mM MgCl2, 1 mM EDTA, 10% sucrose with complete cocktail protease inhibitors. Protein concentration of membrane suspensions were measured by Bradford Protein Assay using bovine serum albumin as the standard (BioRad catalog #500-0006). Protein concentrations of membrane suspensions were adjusted with the final buffer in the range of 5 to 10 mg/mL and were stored at −80° C. until further use.
as §2
(§6) ^35S GTPγS binding assays were performed by incubating recombinant cell membranes prepared above (5 μg) in the presence of scintillation proximity assay beads (SPA beads, Catalog #RPNQ0252 GE Healthcare, Buckinghamshire, England) in GTPγS binding buffer [50 mM HEPES (pH 7.4), 100 mM NaCl, 5 mM MgCl2, 0.001% saponin (Sigma catalog #S4521)] supplemented with 20 uM GDP (Sigma catalog #G7127) in the presence or absence of test compound. The reaction was carried out in 96-well microplates with 0.1 nM [^35S]GTPγS (specific activity=1250 Ci/mmol; Perkin Elmer catalog #NEG030X250UC) in a final volume of 100 uL. After a 90 min room temperature incubation, the reaction was analyzed using a scintillation counter (Perkin Elmer Microbeta instrument). Binding data were analyzed using GraphPad Prism.

[3] = molecular target: T3, human CB2 (hCB2) (Homo sapiens, UniProt P34972); experiment: 35S GTPγS binding assay, hCB2 agonist; format: biochemical
T3 construct: (cDNA clone) CNR0200000
Procedure: as §4
as §5, with “Cells were scraped into 20 mM HEPES, pH 7.4, 10 mM EDTA containing complete cocktail protease inhibitors (Roche, Catalog #11 697 498 001) and were homogenized by an electric-powered mechanical probe homogenizer (Omni GLH; probe G7-195S) for 40 seconds at 7000 rpm.” left out
as §2, §6

[4] = molecular target: T4, recombinant human cannabinoid receptor CB1 (Homo sapiens, UniProt P21554); experiment: Cannabinoid receptor radioligand binding assay, [3H]-CP 55,940 displacement, hCB1
T4 construct: (cDNA clone) CNR01L000
From the text: as §1, §5
Radioligand binding assays were performed by incubating membranes (2-10 μg protein) prepared from HEK-293 cells expressing recombinant human cannabinoid receptors, CB1 or CB2, at room temperature with 0.5 nM cannabinoid receptor agonist, [^3H]-CP 55,940 (Perkin Elmer, catalog #NET1051) in 0.2 mL of binding buffer (50 mM Tris-HCl, pH 7.5, 5 mM MgCl2, 2.5 mM EDTA) and 0.1% fatty acid free bovine serum albumin (Sigma Cat. #A0821) for 90 minutes. A rapid filtration technique using Millipore FB filter plates (Catalog #MADVNOB) and filtration apparatus (Millipore system Catalog MAVM0960R) with vacuum aspiration was used to harvest and rinse labeled membranes (8 times with 0.2 mL of chilled binding buffer). The radioactivity bound to the filters was counted with 0.05 mL of liquid scintillant (UltraGold MV, PerkinElmer catalog #6013159) in a scintillation counter (Perkin Elmer Microbeta instrument). Nonspecific binding was determined in the presence of unlabeled 1 μM CP 55,940 (Sigma Aldrich, catalog #C1112). Binding data were analyzed using GraphPad Prism (GraphPad Software, Inc. San Diego, Calif.).

[5] = molecular target: T5, recombinant human cannabinoid receptor CB2 (Homo sapiens, UniProt P34972); experiment: Cannabinoid receptor radioligand binding assay, [3H]-CP 55,940 displacement, hCB2
T5 construct: (cDNA clone) CNR0200000
Procedure: as §5, with “Cells were scraped into 20 mM HEPES, pH 7.4, 10 mM EDTA containing complete cocktail protease inhibitors (Roche, Catalog #11 697 498 001) and were homogenized by an electric-powered mechanical probe homogenizer (Omni GLH; probe G7-195S) for 40 seconds at 7000 rpm.” left out
A rapid filtration technique using Millipore FB filter plates (Catalog #MADVNOB) and filtration apparatus (Millipore system Catalog MAVM0960R) with vacuum aspiration was used to harvest and rinse labeled membranes (8 times with 0.2 mL of chilled binding buffer). […] Binding data were analyzed using GraphPad Prism (GraphPad Software, Inc. San Diego, Calif.).

[6] = molecular target: T6, human CB2 receptors (Homo sapiens, UniProt P34972); experiment: cAMP assay in HEK-293 cells, hCB2 agonist; format: cell-based; details: for hCB2 EC50 (cAMP ag, nM): inhibition of forskolin-stimulated cAMP, HEK-293 cells
T6 construct: (cDNA clone) CNR0200000
Procedure: as §2
as §3, with “For cannabinoid receptor functional assays measuring agonist effects on cellular cAMP levels, monolayers of cultured cells were harvested with enzyme-free PBS-based cell dissociation buffer (Gibco, Cat#13151-04).” left out, “100%.” for “100%. CB1 or CB2 agonists reduced forskolin-stimulated cAMP signaling. The EC50 value of an agonist compound was defined as the concentration at which 50% of the forskolin-stimulated cAMP synthesis was inhibited.”

[7] = displacement of 0.5 nM [3H]-CP 55,940, read-out: hCB1 IC50 (CP displ)
[8] = displacement of 0.5 nM [3H]-CP 55,940, read-out: hCB2 IC50 (CP displ)

T6 sequence (P34972 whole entry): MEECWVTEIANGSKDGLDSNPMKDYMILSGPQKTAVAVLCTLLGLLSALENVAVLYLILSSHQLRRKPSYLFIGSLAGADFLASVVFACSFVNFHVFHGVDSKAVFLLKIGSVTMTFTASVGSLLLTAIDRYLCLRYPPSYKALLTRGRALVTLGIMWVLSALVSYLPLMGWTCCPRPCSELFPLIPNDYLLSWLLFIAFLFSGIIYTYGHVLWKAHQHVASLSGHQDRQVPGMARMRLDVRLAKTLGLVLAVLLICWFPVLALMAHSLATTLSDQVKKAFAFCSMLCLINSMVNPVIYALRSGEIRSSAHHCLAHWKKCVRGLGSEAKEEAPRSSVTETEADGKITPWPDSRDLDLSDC
T5 sequence (P34972 whole entry): as above
T3 sequence (P34972 whole entry): as above
T1 sequence (P21554 whole entry): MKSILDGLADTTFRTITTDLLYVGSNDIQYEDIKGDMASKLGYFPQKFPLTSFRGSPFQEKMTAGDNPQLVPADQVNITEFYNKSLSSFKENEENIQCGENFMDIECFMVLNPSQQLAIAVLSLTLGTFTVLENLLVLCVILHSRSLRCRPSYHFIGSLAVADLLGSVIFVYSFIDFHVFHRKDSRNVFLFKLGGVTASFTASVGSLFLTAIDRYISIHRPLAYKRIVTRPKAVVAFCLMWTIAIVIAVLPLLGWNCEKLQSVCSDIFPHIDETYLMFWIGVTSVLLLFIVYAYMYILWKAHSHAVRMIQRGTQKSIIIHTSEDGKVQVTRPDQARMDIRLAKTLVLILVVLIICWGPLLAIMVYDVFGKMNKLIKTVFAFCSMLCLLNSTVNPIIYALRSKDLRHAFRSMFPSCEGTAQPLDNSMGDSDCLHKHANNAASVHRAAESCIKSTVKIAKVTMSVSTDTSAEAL
T4 sequence (P21554 whole entry): as above
T2 sequence (P21554 whole entry): as above

SMILES | hCB1 EC50 (cAMP ag, nM) [1] | pEC50 [2] | pEC50 [3] | pIC50 [4] | pIC50 [5] | pEC50 [6] | pIC50 [4, 7] | pIC50 [5, 8] | hCB2 EC50 (cAMP ag, nM) [6]
COc1ccc(C(=O)c2cc3cc(C)n(CCN4CCC(OC)CC4)c3s2)cn1 [Compound 156, (6-(2-(4-methoxypiperidin-1-yl)ethyl)-5-methyl-6H-thieno[2,3-b]pyrrol-2-yl)(6-methoxypyridin-3-yl)methanone] | NS (NS means “Not Significant,” which means less than 30% agonist activity when compared to the positive control.) | < 5.00 | < 5.00 | – | – | – | – | – | –
COc1ccc(C(=O)c2cc3cc(C)n(C[C@@H]4COCCN4C)c3s2)cn1 [Compound 171, (R)-(6-methoxypyridin-3-yl)(5-methyl-6-((4-methylmorpholin-3-yl)methyl)-6H-thieno[2,3-b]pyrrol-2-yl)methanone] | NS (NS means “Not Significant,” which means less than 30% agonist activity when compared to the positive control.) | < 5.00 | < 5.00 | – | – | – | – | – | –
COc1ccc(C(=O)c2cc3cc(C)n(CCn4ccnc4)c3s2)cc1 [Compound 67, (6-(2-(1H-Imidazol-1-yl)ethyl)-5-methyl-6H-thieno[2,3-b]pyrrol-2-yl)(4-methoxyphenyl)methanone] | NS (NS means “Not Significant,” which means less than 30% agonist activity when compared to the positive control.) | – | 6.00 to 7.00 | < 5.00 | 5.00 to 6.00 | – | – | – | –
CCS(=O)(=O)NCCCn1c(C)cc2cc(C(=O)c3ccc(OC)cc3)sc21 [Compound 74, N-(3-(2-(4-Methoxybenzoyl)-5-methyl-6H-thieno[2,3-b]pyrrol-6-yl)propyl)ethanesulfonamide] | NS (NS means “Not Significant,” which means less than 30% agonist activity when compared to the positive control.) | – | – | < 5.00 | 5.00 to 6.00 | 6.00 to 7.00 | – | – | –
COc1ccc(C(=O)c2cc3cc(C)n(CCC(=O)O)c3s2)cc1 [Compound 73, 3-(2-(4-Methoxybenzoyl)-5-methyl-6H-thieno[2,3-b]pyrrol-6-yl)propanoic acid] | NS (NS means “Not Significant,” which means less than 30% agonist activity when compared to the positive control.) | – | – | – | – | – | < 5.00 | < 5.00 | NS (NS means “Not Significant,” which means less than 30% agonist activity when compared to the positive control.)
Cc1cc2cc(C(=O)c3cccc(Cl)c3Cl)sc2n1C [Compound 20, (2,3-Dichlorophenyl)(5,6-dimethyl-6H-thieno[2,3-b]pyrrol-2-yl)methanone] | NS (NS means “Not Significant,” which means less than 30% agonist activity when compared to the positive control.) | – | 6.00 to 7.00 | < 5.00 | 5.00 to 6.00 | – | – | – | –
COc1ccc(C(=O)c2cc3cc(C)n(CCCN(C)S(C)(=O)=O)c3s2)cc1 [Compound 69, N-(3-(2-(4-Methoxybenzoyl)-5-methyl-6H-thieno[2,3-b]pyrrol-6-yl)propyl)-N-methylmethanesulfonamide] | NS (NS means “Not Significant,” which means less than 30% agonist activity when compared to the positive control.) | – | 6.00 to 7.00 | < 5.00 | 5.00 to 6.00 | – | – | – | –
COc1ccc(C(=O)c2cc3cc(C)n(CCN4CCN(S(C)(=O)=O)CC4)c3s2)cn1 [Compound 143, (6-methoxypyridin-3-yl)(5-methyl-6-(2-(4-(methylsulfonyl)piperazin-1-yl)ethyl)-6H-thieno[2,3-b]pyrrol-2-yl)methanone] | NS (NS means “Not Significant,” which means less than 30% agonist activity when compared to the positive control.) | – | – | – | – | – | < 5.00 | < 5.00 | NS (NS means “Not Significant,” which means less than 30% agonist activity when compared to the positive control.)
